In PMC11507377, “Intricate Evolution of Multifunctional Lipoxygenase in Red Algae” (International Journal of Molecular Sciences, 2024):

Assays:
PhLOX [1] = biological target: T1, PhLOX (Pyropia haitanensis, UniProt J7JU42, F642V/F826L); conditions: 100 μM ALA, 0.1 mg/mL enzyme, pH 8.0, 20 °C, 15 min
T1 construct: gene lox

PhLOX [2] = biological target: T2, PhLOX (Pyropia haitanensis, UniProt J7JU42, F826L); conditions: 100 μM ALA, 0.1 mg/mL enzyme, pH 8.0, 20 °C, 15 min
T2 construct: gene lox

SvLOX = biological target: T3, SvLOX (Shewanella violacea, UniProt D4ZL63); assay: HPLC-MS and GC-MS of products; format: biochemical; conditions: 100 μM ARA, 0.1 mg/mL enzyme, pH 8.0, 20 °C, 1 min (HPLC-MS) or 15 min (GC-MS)
T3 construct: gene SVI_2441; SRPBCC domain + LOX domain
T3 sequence (D4ZL63 1-839): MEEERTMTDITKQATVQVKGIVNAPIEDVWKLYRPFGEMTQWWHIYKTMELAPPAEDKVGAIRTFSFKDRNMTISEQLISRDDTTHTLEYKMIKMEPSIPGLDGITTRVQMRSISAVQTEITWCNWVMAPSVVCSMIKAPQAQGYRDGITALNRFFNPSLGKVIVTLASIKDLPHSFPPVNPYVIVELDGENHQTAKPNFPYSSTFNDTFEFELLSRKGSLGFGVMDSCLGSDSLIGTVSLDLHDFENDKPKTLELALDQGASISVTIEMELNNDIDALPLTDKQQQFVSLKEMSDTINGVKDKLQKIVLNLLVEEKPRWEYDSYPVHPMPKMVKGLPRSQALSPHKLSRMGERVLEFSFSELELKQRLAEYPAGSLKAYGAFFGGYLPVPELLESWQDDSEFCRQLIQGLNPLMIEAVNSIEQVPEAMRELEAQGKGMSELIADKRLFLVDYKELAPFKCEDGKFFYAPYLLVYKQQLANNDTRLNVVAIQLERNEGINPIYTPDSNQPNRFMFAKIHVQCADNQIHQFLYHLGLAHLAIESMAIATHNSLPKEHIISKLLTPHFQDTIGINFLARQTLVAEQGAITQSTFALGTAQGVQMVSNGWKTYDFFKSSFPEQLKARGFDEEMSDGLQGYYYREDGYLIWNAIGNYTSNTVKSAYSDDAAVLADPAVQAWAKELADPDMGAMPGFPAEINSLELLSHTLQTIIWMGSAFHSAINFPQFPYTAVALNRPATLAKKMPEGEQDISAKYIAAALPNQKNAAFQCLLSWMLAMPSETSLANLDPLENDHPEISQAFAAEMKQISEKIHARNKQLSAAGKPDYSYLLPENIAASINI

T1 sequence (J7JU42 entry or part of it F642V/F826L): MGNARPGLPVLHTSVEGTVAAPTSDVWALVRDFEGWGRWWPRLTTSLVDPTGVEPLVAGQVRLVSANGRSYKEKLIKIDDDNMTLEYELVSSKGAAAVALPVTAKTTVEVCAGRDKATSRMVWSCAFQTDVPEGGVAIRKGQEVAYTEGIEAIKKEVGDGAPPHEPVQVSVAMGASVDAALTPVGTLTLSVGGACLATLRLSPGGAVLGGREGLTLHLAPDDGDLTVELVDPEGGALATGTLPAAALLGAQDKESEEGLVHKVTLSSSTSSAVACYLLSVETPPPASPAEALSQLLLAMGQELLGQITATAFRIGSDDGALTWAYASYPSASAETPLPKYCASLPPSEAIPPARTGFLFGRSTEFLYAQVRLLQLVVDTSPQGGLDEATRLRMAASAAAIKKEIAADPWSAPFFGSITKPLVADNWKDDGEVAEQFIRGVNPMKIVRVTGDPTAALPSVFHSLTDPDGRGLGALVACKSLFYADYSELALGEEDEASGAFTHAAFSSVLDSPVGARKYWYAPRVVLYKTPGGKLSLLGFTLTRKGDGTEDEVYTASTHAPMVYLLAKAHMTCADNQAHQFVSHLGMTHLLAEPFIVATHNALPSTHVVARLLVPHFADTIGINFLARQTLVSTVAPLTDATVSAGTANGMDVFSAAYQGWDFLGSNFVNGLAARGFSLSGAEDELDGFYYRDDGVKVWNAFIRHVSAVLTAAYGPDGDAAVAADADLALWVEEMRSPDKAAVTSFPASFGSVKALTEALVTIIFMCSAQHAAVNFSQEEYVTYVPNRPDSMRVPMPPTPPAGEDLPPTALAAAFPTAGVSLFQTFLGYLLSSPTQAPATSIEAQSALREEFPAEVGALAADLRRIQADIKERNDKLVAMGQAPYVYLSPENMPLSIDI
T2 sequence (J7JU42 entry or part of it F826L): as the sequence (J7JU42 entry or part of it F642V/F826L) above, with V642F counted along it

Row | SMILES | HPLC-MS of products (PhLOX [1]) | HPLC-MS of products (PhLOX [2]) | HPLC-MS and GC-MS of products (SvLOX)
1 | CC/C=C\C/C=C\C/C=C\CCCCCCCC(=O)O [α-linolenic acid] | When ALA was incubated with the F642V-F826L double mutant of PhLOX, 13-HpOTE was the dominating product | (ALA) was incubated with the F826L mutant of PhLOX, much more 9-HpOTE was formed | 
2 | CCCCC/C=C\C/C=C\C/C=C\C/C=C\CCCC(=O)O [arachidonic acid] |  |  | the incubation of ARA with SvLOX gave 12-hydroperoxy/hydroxy eicosatetraenoic acids
